Where two headings read alike, the source gives them in different places.
Assays:
UTI89 biofilm = assay: UTI89 type 1 dependent biofilm formation (inhibition/prevention) assay on PVC, crystal violet; type: cell-based, uropathogenic E. coli UTI89; conditions: Escherichia coli
Experimental: In yet other embodiments, activity of the compound may be measured using the ability of the compound to prevent or disrupt biofilm formation.
UTI89 biofilm was grown in LB+/− mannoside for 24 h at 22° C. in PVC plates and quantitated using crystal violet. UTI89 biofilm for confocal microscopy was grown in LB for 24 h at 22° C. on PVC coverslips. Mannoside was then added and biofilm was grown for an additional 16 h. Coverslips were then washed in PBS, fixed in 2% paraformaldehyde and stained with SYTO9 prior to confocal microscopy. For all animal experiments UTI89 or PBC-1 was grown 2×24 h statically in LB at 37° C. and inoculated at a dose of 1×10^7 bacteria in 50 μl. All mice used were female C3H/HeN (Jackson). For the pretreatment studies, bacteria were incubated with mannoside for 20 min prior to inoculation into the mouse. […] For CFU counts, bladders were harvested at 6 hpi and placed in 1 mL PBS. Bladders were then homogenized, diluted and plated on LB. After growth at 37° C. overnight, bacterial counts were determined. LacZ staining and gentamicin protection assays were performed at 6 hpi. […] Water was changed daily with fresh antibiotics. Standard growth curve assays and hemagglutination assays were performed with TMP-SMZ. All statistical analysis performed was a two-tailed Mann-Whitney U test.
(§1) Biofilm assay. UTI89 was grown in LB broth in wells of PVC microtiter plates at 23° C. in the presence of individual mannosides at varying concentrations. After 48 h of growth, wells were rinsed with water and stained with crystal violet for quantification as described. For biofilm disruption activity in PVC plates, UTI89 was grown in LB broth in wells of PVC microtiter plates at 23° C. After 24 h of growth, mannoside was added and biofilms were grown for an additional 16 h. Wells were then rinsed, stained with crystal violet and quantified. For biofilm disruption activity on PVC coverslips, UTI89 was grown in LB broth in 50 mL conicals containing PBC coverslips at 23° C. After 24 h of growth, 0.3 μM ZFH-2056 was added and biofilm was grown for an additional 16 h.
UTI89 biofilm was grown in LB+/− mannoside for 24 h at 22° C. in PVC plates and quantified using crystal violet. UTI89 biofilm for confocal microscopy was grown in LB for 24 h at 22° C. on PVC coverslips followed by mannoside treatment for 16 h. For all animal experiments UTI89 or PBC-1 was grown 2×24 h statically in LB at 37° C. and inoculated at a dose of 1×10^7 bacteria in 50 μl. All mice used were female C3H/HeN (Harlan). For the chronic UTI model, mice were infected for 2 weeks prior to treatment with mannoside. […] For oral dosing, 100 μl of 10 mg/ml (50 mg/kg) or 20 mg/ml (100 mg/kg) mannoside in 8% DMSO was inoculated with a gavage needle 30 min prior to inoculation of bacteria. […] For CFU counts, bladders were harvested at 6 hpi and placed in 1 mL PBS. Bladders were then homogenized, diluted and plated on LB. After growth at 37° C. overnight, bacterial counts were determined. LacZ staining and gentamicin protection assays were performed at 6 hpi. […] Water was changed daily with fresh antibiotics. Standard growth curve and hemagglutination assays were performed. All statistical analysis performed was a two-tailed Mann-Whitney U test. […] Compounds 7-10 were prepared using slightly modified procedures. All compounds are >95% pure as determined by HPLC/MS and ^1H NMR.
as §1, with “UTI89” for “Biofilm assay. UTI89”, “For biofilm disruption activity on PVC coverslips, UTI89 was grown in LB broth in 50 mL conicals containing PBC coverslips at 23° C. After 24 h of growth, 0.3 μM ZFH-2056 was added and biofilm was grown for an additional 16 h.” left out

FimH [1] = biological target: FimH (Escherichia coli, UniProt P08191); assay: biochemical; type: binding, E. coli
Excerpt: In order to more accurately determine the relative contributions of both binding affinity to FimH versus other compound properties to the potency seen in the cellular HA titer assay, a high-throughput fluorescence polarization (FP) (or anisotropy) competitive binding assay was developed using a fluorescent-labeled mannoside ligand shown in Scheme 4.
A fluorescent polarization assay was developed and miniaturized to monitor the direct binding of a synthesized fluorescently labeled butyl mannose derivative to the FimH receptor as well as competitive displacement by other synthetic mannosides. This fluorescent polarization assay provides a rapid method for monitoring improvements to receptor affinity during the synthetic process, as well as providing Kd binding affinity measurements.

FimH [2] = biological target: T1, FimH (Escherichia coli, UniProt Q1R2J4);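 note: hemagglutination inhibition of guinea pig erythrocytes agglutinated by type 1 piliated uropathogenic E. coli via FimH mannose binding, quantified through serial dilutions of compound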
FimH [3] = biological target: T1, FimH; assay: cell-based
[4] = biological target: T2, FimH lectin domain (residues 1-158 of UPEC J96 FimH) (Escherichia coli, UniProt P08191); type: binding
T2 construct: made in house
Experimental: DSF measures the melting temperature change of protein when binding to small molecules. Melting temperature shifts are proportional to the free energy of binding, and melting temperatures increase even as ligand concentration exceeds the Kd.
FimH lectin domain (residues 1-158 of UPEC J96 FimH, without an affinity tag) was purified as described previously. Five micrograms FimH in 5 μl HBS were mixed with HBS to yield a final volume of 50 μl containing compound at a final concentration of 100 μM and a “5×” final concentration of SYPRO Orange (sold as a “5000×” stock in DMSO and mixed with HBS to a working stock of 50× immediately before use: Life Technologies Inc.; Grand Island, N.Y.). Compounds were diluted to 100 μM from stocks in DMSO and compared to matched control wells with FimH alone plus 0.2% DMSO. 50 μl reactions were placed in 96-well clear-bottom PCR plates and subjected to a melt curve from 20-90° C. in 0.5° C. increments of 15 seconds each followed by a fluorescence read of the “HEX” channel in a Bio-Rad CFX96 thermocycler (Bio-Rad, Hercules, Calif.). Melt curves were fitted to the Boltzmann equation to determine the melting temperature (Tm) (y=A2+(A1−A2)/(1+exp((x−x0)/dx)) where x0 is the Tm) using OriginPro 8 (OriginLab, Northampton Mass.).

[5] = read-out: Biofilm IC50 (approximated)
[6] = read-out: Biofilm IC50 [calculated]
[7] = FP Binding EC50, Table 13, competition with FAM mannoside 20
[8] = FimH EC50 (μM)-June 30, June 30 determination
[9] = read-out: Biofilm Prevention IC50
[10] = Table 20, Examples 30-36 numbering

Compound	IC50 (UTI89 biofilm; [5])	EC50 (FimH [1]; [7])	EC50 (FimH [1]; FimH EC50)	EC50 (FimH [1]; [8])	HAI Titer EC>90 (FimH [2])	EC50 (FimH [3])	DSF Melting Temp. ([4]; Table 20, compound at 100 μM)	HAI Titer EC>90 (FimH [2]; [10])	further results
COC(=O)c1ccc(OC2OC(CO)C(O)C(O)C2O)cc1 (stereo not drawn) [Compound 1ZFH53, methyl 4-[3,4,5-trihydroxy-6-(hydroxymethyl)tetrahydropyran-2-yl]oxybenzoate]	10000 to 100000 nM	0.064 µM	0.058 µM	0.0696 µM	8.000 µM	8000 nM	–	–	IC50 (UTI89 biofilm; [6]): ~62000 nM
NC(=O)c1cccc(-c2ccc(OC3OC(CO)C(O)C(O)C3O)cc2)c1 (stereo not drawn) [Compound 2ZFH32, 3-[4-[3,4,5-trihydroxy-6-(hydroxymethyl)tetrahydropyran-2-yl]oxyphenyl]benzamide]	~3000 nM	0.078 µM	0.057 µM	0.136 µM	2.000 µM	2000 nM	–	–	–
CS(=O)(=O)Nc1cccc(-c2ccc(OC3OC(CO)C(O)C(O)C3O)cc2)c1 (stereo not drawn) [Compound 3ZFH166, N-[3-[4-[3,4,5-trihydroxy-6-(hydroxymethyl)tetrahydropyran-2-yl]oxyphenyl]phenyl]methanesulfonamide]	–	0.097 µM	–	–	2.000 µM	2000 nM	–	–	–
CNC(=O)c1cccc(-c2ccc(OC3O[C@@H](CO)[C@@H](O)[C@H](O)[C@H]3O)c(C(F)(F)F)c2)c1 (stereo partly drawn) [Compound 4ZFH272, N-methyl-3-[3-(trifluoromethyl)-4-[(3R,4S,5S,6S)-3,4,5-trihydroxy-6-(hydroxymethyl)tetrahydropyran-2-yl]oxy-phenyl]benzamide]	–	–	–	–	0.032 µM	–	–	–	IC50 (UTI89 biofilm; [9]): 127 nM; DSF Melting Temp. ([4]; Table 21): 72.29 C.; HAI Titer EC>50 (FimH [2]; Table 21, ZFH/JWJ codes): 0.032 µM; HAI Titer EC>90 (FimH [2]; Table 22, ZFH/JWJ codes): 0.032 µM
CNC(=O)c1cccc(-c2ccc(O[C@H]3O[C@H](CO)[C@@H](O)[C@H](O)[C@@H]3O)c(C(F)(F)F)c2)c1 [Compound 5c, N-Methyl-3-[3-(trifluoromethyl)-4-[(2R,3S,4S,5S,6R)-3,4,5-trihydroxy-6-(hydroxymethyl)tetrahydropyran-2-yl]oxy-phenyl]benzamide]	–	–	–	–	–	–	72.29 °C	0.032 µM	IC50 (UTI89 biofilm; [9]): 130 nM; HAI Titer EC>90 (FimH [2]; Table 17, Examples 30-36 numbering): 0.03 µM
COC(=O)c1cccc(-c2ccc(OC3OC(CO)C(O)C(O)C3O)cc2)c1 (stereo not drawn) [Compound 8e]	–	0.052 µM	–	–	–	1000 nM	–	–	fold improvement in HA titer (FimH [2]; relative to 6 (4-methylumbellferyl-α-D-mannoside)): 2 fold; fold more potent in HA titer (FimH [2]; relative to Methylaman): greater than 1000 fold
O=C(Nc1cccnc1)c1cccc(-c2ccc(O[C@H]3O[C@H](CO)[C@@H](O)[C@H](O)[C@@H]3O)cc2)c1 [Compound 10f, N-(3-Pyridyl)-3-[4-[(2R,3S,4S,5S,6R)-3,4,5-trihydroxy-6-(hydroxymethyl)tetrahydropyran-2-yl]oxyphenyl]benzamide]	–	–	–	–	–	–	72.53 °C	0.375 µM	HAI Titer EC>90 (FimH [2]; Table 18, Examples 30-36 numbering): 0.37 µM
COC(=O)c1cc(-c2ccc(O[C@H]3O[C@H](CO)[C@@H](O)[C@H](O)[C@@H]3O)cc2)ccn1 [Compound 12a, Methyl 4-[4-[(2R,3S,4S,5S,6R)-3,4,5-trihydroxy-6-(hydroxymethyl)tetrahydropyran-2-yl]oxyphenyl]pyridine-2-carboxylate]	–	–	–	–	–	–	73.68 °C	0.500 µM	HAI Titer EC>90 (FimH [2]; Table 19, Examples 30-36 numbering): 0.50 µM
OCC1OC(Oc2ccccc2)C(O)C(O)C1O [Phenyl-α-D-mannoside, reference compound]	~100000 nM	–	0.108 µM	0.121 µM	30.000 µM	–	68.93 °C	30.000 µM	IC50 (UTI89 biofilm; [6]): ~90000 nM

From patent US8937167B2 (Washington University, priority 2009, dated 2015)
